# How the values were obtained:
# [1] = molecular target: T1, EGFR (Homo sapiens, UniProt P00533); experiment: KdELECT binding assay, EGFR
# T1 construct: purchased
# Experimental: Exemplary compounds were tested for ability to bind to EGFR.
# (§1) Compounds were tested using a KdELECT assay. Kinase-tagged T7 phage strains were prepared in an E. coli host derived from the BL21 strain. E. coli were grown to log-phase and infected with T7 phage and incubated with shaking at 32° C. until lysis. The lysates were centrifuged and filtered to remove cell debris. The remaining kinases were produced in HEK-293 cells and subsequently tagged with DNA for qPCR detection. Streptavidin-coated magnetic beads were treated with biotinylated small molecule ligands for 30 minutes at room temperature to generate affinity resins for kinase assays. The liganded beads were blocked with excess biotin and washed with blocking buffer (SeaBlock (Pierce), 1% BSA, 0.05% Tween 20, 1 mM DTT) to remove unbound ligand and to reduce non-specific binding. Binding reactions were assembled by combining kinases, liganded affinity beads, and test compounds in 1× binding buffer (20% SeaBlock, 0.17×PBS, 0.05% Tween 20, 6 mM DTT). Test compounds were prepared as 111× stocks in 100% DMSO. Kd values were determined using an 11-point 3-fold compound dilution series with three DMSO control points. All compounds for Kd measurements are distributed by acoustic transfer (non-contact dispensing) in 100% DMSO. The compounds were then diluted directly into the assays such that the final concentration of DMSO was 0.9%. All reactions performed in polypropylene 384-well plate. Each was a final volume of 0.02 mL. The assay plates were incubated at room temperature with shaking for 1 hour and the affinity beads were washed with wash buffer (1× PBS, 0.05% Tween 20). The beads were then re-suspended in elution buffer (1× PBS, 0.05% Tween 20, 0.5 μM nonbiotinylated affinity ligand) and incubated at room temperature with shaking for 30 minutes. The kinase concentration in the eluates was measured by qPCR.
# [2] = molecular target: T2, EGFR WT (amino acids 669-1011, Accession Number NP_005219.2) (Homo sapiens, UniProt P00533); experiment: KdELECT binding assay (Eurofins Discovery), EGFR WT
# T2 construct: purchased Eurofins Discovery; host or cells: bacteria (E. coli, BL21-derived, T7 phage)
# T2 sequence (P00533 669-1011): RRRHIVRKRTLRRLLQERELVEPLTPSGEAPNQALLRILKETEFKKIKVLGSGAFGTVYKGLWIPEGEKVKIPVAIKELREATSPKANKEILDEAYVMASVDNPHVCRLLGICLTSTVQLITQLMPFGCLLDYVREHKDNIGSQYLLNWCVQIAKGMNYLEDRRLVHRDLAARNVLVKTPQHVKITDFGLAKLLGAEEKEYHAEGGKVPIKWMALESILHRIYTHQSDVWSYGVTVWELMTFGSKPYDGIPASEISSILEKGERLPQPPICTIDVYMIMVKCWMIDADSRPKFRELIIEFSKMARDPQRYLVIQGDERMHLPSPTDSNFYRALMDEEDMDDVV
# Experimental: (§2) Exemplary compounds were tested for ability to bind to EGFR WT (amino acids 669-1011, Accession Number NP_005219.2) or EGFR T790M, L858R (amino acids 669-1011 Accession Number NP_005219.2) expressed from bacteria or mammalian cells, respectively. Compounds were tested using the KdELECT assay at Eurofins Discovery.
# as §1, with “Kinase-tagged” for “Compounds were tested using a KdELECT assay. Kinase-tagged”
# [3] = molecular target: T3, EGFR T790M, L858R (amino acids 669-1011 Accession Number NP_005219.2) (Homo sapiens, UniProt P00533, L858R/T790M); experiment: KdELECT binding assay (Eurofins Discovery), EGFR T790M, L858R; settings: read-out: EGFR DM Kd
# T3 construct: purchased Eurofins Discovery; host or cells: mammalian cells (HEK-293)
# T3 sequence (P00533 669-1011 T790M/L858R): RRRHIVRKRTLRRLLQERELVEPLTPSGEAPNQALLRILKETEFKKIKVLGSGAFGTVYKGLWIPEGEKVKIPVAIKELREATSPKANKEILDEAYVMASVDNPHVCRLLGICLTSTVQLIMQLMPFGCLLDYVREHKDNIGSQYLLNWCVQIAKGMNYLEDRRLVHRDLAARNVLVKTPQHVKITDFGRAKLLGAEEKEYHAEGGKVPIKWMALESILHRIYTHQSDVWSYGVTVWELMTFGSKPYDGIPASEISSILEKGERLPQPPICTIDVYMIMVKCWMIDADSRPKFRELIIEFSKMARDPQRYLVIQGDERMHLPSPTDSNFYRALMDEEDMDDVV
# Experimental: as §2
# as §1, with “Kinase-tagged” for “Compounds were tested using a KdELECT assay. Kinase-tagged”
# [4] = system: HEK293 cells; experiment: Cellular growth inhibition assay (CellTiter-Glo), HEK293 cells; assay type: cell-based; settings: Homo sapiens, 72 h, three days compound treatment, CellTiter-Glo 2.0, read-out: CTG HEK293 GI50
# Experimental: (§3) Exemplary compounds were tested for ability to inhibit the proliferation of HEK293 cells or HeLa cells.
# (§4) HEK293 and HeLa cells were cultured in DMEM medium supplemented with 10% fetal bovine serum and 1% Penn/Strep. Cells were seeded in white 384-well plates at 500 cells/well in […] complete medium. Following seeding, plates were spun at 300×g for three minutes and cultured at 37° C. with 5% CO2 in a humidified tissue culture incubator.
# (§5) After 24 hours, compounds were titrated in 100% DMSO and diluted in complete cell culture medium. […] of compound/media mixture was added to cells to bring total volume in well to […]. DMSO alone was used as a negative control. P lates were then spun at 300×g for three minutes and stored at 37° C. with 5% CO2 for three days.
# (§6) On Day 0 and Day 3 of compound treatment, cell viability was quantified with CellTiter-Glo 2.0 reagent (Promega). After equilibrating microplates at room temperature for 30 minutes, 25 μL CellTiter-Glo 2.0 reagent was dispensed into each well to bring total volume to […]. Plates were mixed on shaker for 2 minutes at 500 rpm, followed by a 10-minute incubation at room temperature. Following a quick spin, luminescence readings were measured with an EnVision Plate Reader. Data was normalized to DMSO treated Day 0 and Day 3 readings. A four-parameter non-linear regression curve fit was applied to dose-response data in GraphPad Prism data analysis software to determine the half maximal growth inhibitory concentration (GI50) for each compound.
# [5] = system: HeLa cells; experiment: Cellular growth inhibition assay (CellTiter-Glo), HeLa cells; assay type: cell-based; settings: Homo sapiens, 72 h, three days compound treatment, CellTiter-Glo 2.0, read-out: CTG HELA GI50
# Experimental: as §3, §4, §5, §6
# T1 sequence (P00533 25-1210): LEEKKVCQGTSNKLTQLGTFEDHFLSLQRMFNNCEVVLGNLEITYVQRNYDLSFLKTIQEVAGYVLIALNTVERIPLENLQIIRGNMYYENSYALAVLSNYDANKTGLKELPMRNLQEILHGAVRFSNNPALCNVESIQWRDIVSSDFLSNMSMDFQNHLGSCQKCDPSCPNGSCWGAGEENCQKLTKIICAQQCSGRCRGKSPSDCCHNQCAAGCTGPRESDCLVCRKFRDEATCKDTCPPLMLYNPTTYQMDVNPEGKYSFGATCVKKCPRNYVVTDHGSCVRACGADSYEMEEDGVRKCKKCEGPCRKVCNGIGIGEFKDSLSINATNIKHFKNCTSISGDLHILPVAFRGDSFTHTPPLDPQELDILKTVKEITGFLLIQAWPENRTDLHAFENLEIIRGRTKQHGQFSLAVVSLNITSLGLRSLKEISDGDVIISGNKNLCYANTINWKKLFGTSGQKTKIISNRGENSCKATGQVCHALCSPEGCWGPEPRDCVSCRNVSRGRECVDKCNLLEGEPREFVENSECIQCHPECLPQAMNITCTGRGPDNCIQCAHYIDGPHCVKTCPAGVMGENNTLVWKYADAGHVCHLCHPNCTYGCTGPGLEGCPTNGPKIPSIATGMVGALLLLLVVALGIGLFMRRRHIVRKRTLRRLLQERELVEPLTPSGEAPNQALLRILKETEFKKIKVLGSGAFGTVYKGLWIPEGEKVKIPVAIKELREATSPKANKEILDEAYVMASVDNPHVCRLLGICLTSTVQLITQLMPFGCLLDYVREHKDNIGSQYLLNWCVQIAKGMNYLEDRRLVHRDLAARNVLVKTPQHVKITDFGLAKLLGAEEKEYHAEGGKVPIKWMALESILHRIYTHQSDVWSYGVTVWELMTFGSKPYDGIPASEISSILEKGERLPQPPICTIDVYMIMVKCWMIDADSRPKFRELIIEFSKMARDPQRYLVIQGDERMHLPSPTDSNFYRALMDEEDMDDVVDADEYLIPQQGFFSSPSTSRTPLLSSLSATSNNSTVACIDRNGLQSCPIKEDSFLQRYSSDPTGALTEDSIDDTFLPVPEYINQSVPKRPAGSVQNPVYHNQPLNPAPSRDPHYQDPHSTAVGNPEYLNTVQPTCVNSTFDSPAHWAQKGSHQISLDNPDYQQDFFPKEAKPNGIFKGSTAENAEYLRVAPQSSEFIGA
SMILES,Kd [1],Kd [2],Kd [3],GI50 [4],GI50 [5]
"CCC1C(=O)N(C)c2cnc(Nc3ccc(C(=O)NCCOCCOCCN(C)CC=CC(=O)NC4CN(c5nc(Nc6cn(C)nc6OC)c6ncn(C)c6n5)CC4F)cc3OC)nc2N1C1CCCC1 [Compound I-120, 4-[[(7R)-8-cyclopentyl-7-ethyl-5-methyl-6-oxo-7H-pteridin-2-yl]amino]-N-[2-[2-[2-[[(E)-4-1[[(3R,4R)-4-fluoro-1-[6-1[(3-methoxy-1-methyl-pyrazol-4-yl)amino]-9-methyl-purin-2-yl]pyrrolidin-3-yl]amino]-4-oxo-but-2-enyl]-methylamino]ethoxy]ethoxy]ethyl]-3-methoxy-benzamide]",> 2500 nM,> 2500 nM,50 to 500 nM,500 to 1500 nM,–
"CC[C@@H]1C(=O)N(C)c2cnc(Nc3ccc(C(=O)NCCOCCOCCN(C)C/C=C/C(=O)Nc4cc(Nc5nccc(-c6cn(C)c7ccccc67)n5)c(OC)cc4N(C)CCN(C)C)cc3OC)nc2N1C1CCCC1 [Compound I-117, 4-[[(7R)-8-cyclopentyl-7-ethyl-5-methyl-6-oxo-7H-pteridin-2-yl]amino]-N-[2-[2-[2-1[[(E)-4-1[2-[2-(dimethylamino)ethyl-methyl-amino]-4-methoxy-5-1[[4-(1-methylindol-3-yl)pyrimidin-2-yl]amino]anilino]-4-oxo-but-2-enyl]-methyl-amino]ethoxy]ethoxy]ethyl]-3-methoxy-benzamide]",> 2500 nM,> 2500 nM,50 to 500 nM,500 to 1500 nM,–
"CC[C@@H]1C(=O)N(C)c2cnc(Nc3ccc(C(=O)NCCOCCOCCOCCOCCOCCOCCN(C)C/C=C/C(=O)Nc4cc(Nc5nccc(-c6cn(C)c7ccccc67)n5)c(OC)cc4N(C)CCN(C)C)cc3OC)nc2N1C1CCCC1 [Compound I-118, 4-[[(7R)-8-cyclopentyl-7-ethyl-5-methyl-6-oxo-7H-pteridin-2-yl]amino]-N-[2-[2-[2-[2-[2-[2-[2-[[(E)-4-[2-[2-(dimethylamino)ethyl-methyl-amino]-4-methoxy-5-[[4-(1-methylindol-3-yl)pyrimidin-2-yl]amino]anilino]-4-oxo-but-2-enyl]-methyl-amino]ethoxy]ethoxy]ethoxy]ethoxy]ethoxy]ethoxy]ethyl]-3-methoxy-benzamide]",> 2500 nM,> 2500 nM,50 to 500 nM,500 to 1500 nM,–
"COc1cc(N(C)CCN(C)C)c(NC(=O)/C=C/CN(C)CCCN2CCN(CCCON(C)C(=O)N3N=C(c4cc(F)ccc4F)S[C@@]3(CCCN)c3ccccc3)CC2)cc1Nc1nccc(-c2cn(C)c3ccccc23)n1 [Compound I-146, (2S)-2-(3-aminopropyl)-5-(2,5-difluorophenyl)-N-[3-[4-1[3-[[(E)-4-1[2-[2-(dimethylamino)ethyl-methyl-amino]-4-methoxy-5-1[[4-(1-methylindol-3-yl)pyrimidin-2-yl]amino]anilino]-4-oxo-but-2-enyl]-methyl-amino]propyl]piperazin-1-yl]propoxy]-N-methyl-2-phenyl-1,3,4-thiadiazole-3-carboxamide]",500 to 2500 nM,500 to 2500 nM,< 50 nM,–,500 to 1500 nM
"C=CC(=O)Nc1cc(Nc2nccc(-c3cn(C)c4ccccc34)n2)c(OC)cc1N(C)CCN(C)CCNC(=O)c1ccc(Nc2ncc3c(n2)N(C2CCCC2)[C@H](CC)C(=O)N3C)c(OC)c1 [Compound I-115, 4-[[(7R)-8-cyclopentyl-7-ethyl-5-methyl-6-oxo-7H-pteridin-2-yl]amino]-3-methoxy-N-[2-[2-[5-methoxy-N-methyl-4-[1[4-(1-methylindol-3-yl)pyrimidin-2-yl]amino]-2-(prop-2-enoylamino)anilino]ethyl-methyl-amino]ethyl]benzamide]",> 2500 nM,> 2500 nM,50 to 500 nM,500 to 1500 nM,–
"CC[C@@H]1C(=O)N(C)c2cnc(Nc3ccc(C(=O)NCCOCCOCCOCCOCCOCCOCCN(C)C/C=C/C(=O)NC4CN(c5nc(Nc6cn(C)nc6OC)c6ncn(C)c6n5)C[C@H]4F)cc3OC)nc2N1C1CCCC1 (stereo partly drawn) [Compound I-121, 4-[[(7R)-8-cyclopentyl-7-ethyl-5-methyl-6-oxo-7H-pteridin-2-yl]amino]-N-[2-[2-[2-[2-[2-[2-[2-[[(E)-4-[1[(3R,4R)-4-fluoro-1-1[6-1[(3-methoxy-1-methyl-pyrazol-4-yl)amino]-9-methyl-purin-2-yl]pyrrolidin-3-yl]amino]-4-oxo-but-2-enyl]-methyl-amino]ethoxy]ethoxy]ethoxy]ethoxy]ethoxy]ethoxy]ethyl]-3-methoxy-benzamide]",500 to 2500 nM,500 to 2500 nM,50 to 500 nM,500 to 1500 nM,–
"C=CC(=O)Nc1cc(Nc2nccc(-c3cn(C)c4ccccc34)n2)c(OC)cc1N(C)CCN(C)CCOCCOCCOCCOCCOCCOCCNS(=O)(=O)c1ccc(Nc2ncc(Br)c(Nc3cccc(F)c3C(N)=O)n2)cc1 [Compound I-34, 2-[[5-bromo-2-[4-[2-[2-[2-[2-[2-[2-[2-[2-[5-methoxy-N-methyl-4-[[4-(1-methylindol-3-yl)pyrimidin-2-yl]amino]-2-(prop-2-enoylamino)anilino]ethyl-methyl-amino]ethoxy]ethoxy]ethoxy]-ethoxy]ethoxy]ethoxy]ethylsulfamoyl]anilino]pyrimidin-4-yl]amino]-6-fluoro-benzamide]",< 50 nM,50 to 500 nM,< 50 nM,–,–
"C=CC(=O)Nc1cc(Nc2nccc(-c3cn(C)c4ccccc34)n2)c(OC)cc1N(C)CCN(C)CCCCCCCCNS(=O)(=O)c1ccc(Nc2ncc(Br)c(Nc3cccc(F)c3C(N)=O)n2)cc1 [Compound I-28, 2-[[5-bromo-2-[4-[8-[2-[5-methoxy-N-methyl-4-[[4-(1-methylindol-3-yl)pyrimidin-2-yl]amino]-2-(prop-2-enoylamino)anilino]ethyl-methyl-amino]octylsulfamoyl]anilino]pyrimidin-4-yl]amino]-6-fluoro-benzamide]",< 50 nM,50 to 500 nM,< 50 nM,–,–

# Reference: patent US20250032623A1, “HETEROBIFUNCTIONAL COMPOUNDS AND THEIR USE IN TREATING DISEASE” (HALDA THERAPEUTICS OPCO, INC., priority 2021, published 2025)
